Assay results as given in patent publication KR20210056931A, “피리메타민을 유효성분으로 포함하는 면역 관련 질환의 치료 또는 예방용 약학 조성물” (priority 2019, dated 2021).
Where “and” joins values, the source holds several entries; their conditions need not be identical. Equal entries are not always repeated.

Tests used:
TNF-α [1] = test: TNF-α expression inhibition in Raw264.7, comparison with DMARDs, Experiment 2-1; format: cell-based; settings: 6 h pretreatment, LPS 10 ng/mL, MTX 344 nM, HCQ 610 nM, PYR 50 ng/mL, CsA 391 ng/mL, AZA 25 ng/mL, SFZ 750 ng/mL
[2] = system: rheumatoid arthritis model, DBA-1J Mice [류마티스 관절염 모델]; test: Histopathological examination in rheumatoid arthritis animal model, dose regimen study, Experiment 6; format: in vivo, mouse; settings: Day 14; MTX 2 mg/kg/2day PO, HCQ 80 mg/kg/day QD PO, PG 25 mg/kg/day QD PO, TFC 10 mg/kg/day BID PO (G3-G6)
[3] = system: rheumatoid arthritis model, DBA-1J Mice [류마티스 관절염 모델]; test: Paw edema in rheumatoid arthritis animal model, dose regimen study, Experiment 6; format: in vivo, mouse; settings: Day 14, MTX 2 mg/kg/2day PO, HCQ 80 mg/kg/day QD PO, PG 25 mg/kg/day QD PO, TFC 10 mg/kg/day BID PO (G3-G6)
TNF-α [4] = test: TNF-α expression inhibition in Raw264.7, comparison with tofacitinib, Experiment 2-2; format: cell-based; settings: 6 h pretreatment, LPS 10 ng/mL 16 h
TNF-α [5] = test: Plasma TNF-α (ELISA), Experiment 6-5; format: in vivo, mouse; settings: for Plasma TNF-α: Day 14, MTX 2 mg/kg/2day PO, HCQ 80 mg/kg/day QD PO, PG 25 mg/kg/day QD PO, TFC 10 mg/kg/day BID PO (G3-G6); for Plasma TNF-α (in words): HCQ, PG, TFC groups
[6] = system: rheumatoid arthritis model, DBA-1J Mice [류마티스 관절염 모델]; test: Arthritis score in rheumatoid arthritis animal model, dose regimen study, Experiment 6; format: in vivo, mouse; settings: HCQ 80 mg/kg/day QD PO, PG 25 mg/kg/day QD PO; for Arthritis score: MTX 2 mg/kg/2day PO, TFC 10 mg/kg/day BID PO (G3-G6); for Arthritis score (in words): TFC 10 mg/kg/day BID PO
STAT3 = STAT3 activity (nuclear translocation) in Raw264.7, Experiment 3; format: cell-based; settings: 50 ng/ml, 2 h pretreatment; LPS 100 ng/ml 16 h; Fig. 6
TNF-α [7] = test: TNF-α expression inhibition in Raw264.7, comparison with hydroxychloroquine and proguanil, Experiment 2-3; format: cell-based; settings: for TNF-α expression: PY 0.2 uM, HCQ 0.61 uM, PG 5 uM, LPS 10 ng/mL, 24 h co-treatment
[8] = Hematological examination, Experiment 6-4; format: in vivo, mouse
[9] = system: rheumatoid arthritis model, DBA-1J Mice [류마티스 관절염 모델]; test: Arthritis score in rheumatoid arthritis animal model, Experiment 5; format: in vivo, mouse; settings: G3: MTX 2 mg/kg/2day PO
[10] = system: rheumatoid arthritis model, DBA-1J Mice [류마티스 관절염 모델]; test: Paw edema in rheumatoid arthritis animal model, Experiment 5; format: in vivo, mouse; settings: G3: MTX 2 mg/kg/2day PO
[11] = system: rheumatoid arthritis model, DBA-1J Mice [류마티스 관절염 모델]; test: Histopathological examination in rheumatoid arthritis animal model, Experiment 5; format: in vivo, mouse; settings: Day 14; G3: MTX 2 mg/kg/2day PO
[12] = Day 14, G3: MTX 2 mpk qd PO, G12: Py 15 mpk qd PO

SMILES: O=C(O)c1cc(/N=N/c2ccc(S(=O)(=O)Nc3ccccn3)cc2)ccc1O [SFZ, Sulfasalazine]
- TNF-α expression (TNF-α [1]; 2hr): 280.7 pg/mL
- TNF-α expression (TNF-α [1]; 24hr): 3578.2 pg/mL

SMILES: C[C@@H]1CCN(C(=O)CC#N)C[C@@H]1N(C)c1ncnc2[nH]ccc12 [토파시티닙]
- Bone destruction [2]: 2.5±0.5
- Cartilage damage [2]: 1.8±0.4
- Histopathological examination, total [2]: 7.3±0.8
- Synovium proliferation [2]: 3.0±0.0
- Paw edema, HL, mean [3]: 0.15 mL
- Paw edema, HR, mean [3]: 0.16 mL
- Paw edema, HL, individual animal ([3]; listed as TFC): 0.13 mL and 0.12 mL and 0.18 mL and 0.14 mL and 0.17 mL
- Paw edema, HR, individual animal ([3]; listed as TFC): 0.19 mL and 0.18 mL and 0.13 mL and 0.14 mL and 0.12 mL
- TNF-α expression (TNF-α [4]; TFN 100 nM): 535.7 pg/mL
- TNF-α expression (TNF-α [4]; TFN 200 nM): 538.5 pg/mL
- Plasma TNF-α (TNF-α [5]): 885.8 pg/mL
- Plasma TNF-α (in words) (TNF-α [5]): 혈장 TNF-α가 감소하지 않은
- Arthritis score ([6]; Day 0): 2.5±1.0 total score
- Arthritis score ([6]; Day 2): 4.5±1.4 total score
- Arthritis score ([6]; Day 5): 6.5±2.5 total score
- Arthritis score ([6]; Day 7): 8.7±2.3 total score
- Arthritis score ([6]; Day 9): 9.0±2.5 total score
- Arthritis score ([6]; Day 12): 10.3±2.6 total score
- Arthritis score ([6]; Day 14): 11.3±3.3 total score
- Arthritis score (in words) [6]: 관절염 지수가 개선되지 않았다

SMILES: CCN(CCO)CCCC(C)Nc1ccnc2cc(Cl)ccc12 (centres unmarked) [히드록시클로로퀸, Hydroxychloroquine]
- STAT3 nuclear translocation (STAT3): LPS 16 시간 자극에 의한 STAT3의 핵이동을 억제함
- Bone destruction [2]: 2.7±0.5
- Cartilage damage [2]: 2.0±1.1
- Histopathological examination, total [2]: 7.7±1.5
- Synovium proliferation [2]: 3.0±0.0
- TNF-α expression (TNF-α [7]): 762.2
- Paw edema, HL, mean [3]: 0.17 mL
- Paw edema, HR, mean [3]: 0.16 mL
- Paw edema, HL, individual animal ([3]; listed as HCQ): 0.17 mL and 0.13 mL and 0.19 mL and 0.15 mL and 0.16 mL
- Paw edema, HR, individual animal ([3]; listed as HCQ): 0.19 mL and 0.15 mL and 0.13 mL and 0.16 mL and 0.18 mL and 0.14 mL
- TNF-α expression (TNF-α [1]; 2hr): 339.5 pg/mL
- TNF-α expression (TNF-α [1]; 24hr): 3564.6 pg/mL
- Plasma TNF-α (TNF-α [5]): 839.5 pg/mL
- Plasma TNF-α (in words) (TNF-α [5]): 혈장 TNF-α가 감소하지 않은
- Arthritis score ([6]; Day 0): 2.5±1.2 total score
- Arthritis score ([6]; Day 2): 4.0±0.6 total score
- Arthritis score ([6]; Day 5): 6.5±0.8 total score
- Arthritis score ([6]; Day 7): 9.3±2.0 total score
- Arthritis score ([6]; Day 9): 10.3±2.1 total score
- Arthritis score ([6]; Day 12): 11.3±2.5 total score
- Arthritis score ([6]; Day 14): 12.0±2.8 total score
- Arthritis score (in words) [6]: 관절염 지수가 개선되지 않았다

SMILES: CN(Cc1cnc2nc(N)nc(N)c2n1)c1ccc(C(=O)N[C@@H](CCC(=O)O)C(=O)O)cc1 [메토트렉세이트, Methotrexate]
- Bone destruction [2]: 1.8±1.0
- Cartilage damage [2]: 1.0±0.6
- Histopathological examination, total [2]: 5.7±1.2
- Synovium proliferation [2]: 2.8±0.4
- %BASO [8, 12]: 0.6±0.3%
- %EOS [8, 12]: 1.8±1.7%
- %LUC [8, 12]: 2.8±1.2%
- %LYM [8, 12]: 40.8±9.9%
- %MONO [8, 12]: 4.2±1.5%
- %NEUT [8, 12]: 49.8±11.7%
- %RETIC [8, 12]: 0.63±1.16%
- HCT [8, 12]: 38.2±6.0%
- HDW [8, 12]: 2.15 ± 0.13 g/dL
- HGB [8, 12]: 10.9 ± 1.7 g/dL
- MCH [8, 12]: 12.8 ± 0.8 pg
- MCV [8, 12]: 44.8 ± 2.9 fL
- MPV [8, 12]: 7 ± 0.8 fL
- PLT [8, 12]: 440±386 10^3 cell/μL
- RDW [8, 12]: 23.4±3.7%
- WBC [8, 12]: 4.55±0.52 10^3 cell/μL
- Hematotoxicity (in words) ([8]; G3 (MTX)): 적혈구와 혈소판 수치가 감소하는 독성이 나타났다
- Arthritis score ([9]; Day 0): 2.3±1.6 Total score
- Arthritis score ([9]; Day 2): 2.9±1.8 Total score
- Arthritis score ([9]; Day 4): 4.6±2.9 Total score
- Arthritis score ([9]; Day 7): 5.7±2.5 Total score
- Arthritis score ([9]; Day 9): 6.0±2.4 Total score
- Arthritis score ([9]; Day 11): 6.6±2.4 Total score
- Arthritis score ([9]; Day 14): 6.9±2.5 Total score
- Paw edema, HL, mean [3]: 0.16 mL
- Paw edema, HR, mean [3]: 0.16 mL
- Paw edema, HL, individual animal ([3]; listed as MTX): 0.19 mL and 0.16 mL and 0.15 mL and 0.17 mL and 0.18 mL and 0.11 mL
- Paw edema, HR, individual animal ([3]; listed as MTX): 0.17 mL and 0.14 mL and 0.19 mL and 0.20 mL and 0.13 mL and 0.11 mL
- Paw edema, LEFT ([10]; Day 0): 0.10 ± 0.01 mL
- Paw edema, RIGHT ([10]; Day 0): 0.10 ± 0.01 mL
- Paw edema, LEFT ([10]; Day 14): 0.13 ± 0.04 mL
- Paw edema, RIGHT ([10]; Day 14): 0.16 ± 0.05 mL
- TNF-α expression (TNF-α [1]; 2hr): 312.8 pg/mL
- TNF-α expression (TNF-α [1]; 24hr): 3464.6 pg/mL
- Plasma TNF-α (TNF-α [5]): 769.1 pg/mL
- Bone destruction [11]: 1.3±1.6
- Cartilage damage [11]: 1.0±1.4
- Histopathological examination, total [11]: 3.6±4.5
- Synovium proliferation [11]: 1.3±1.6
- Arthritis score ([6]; Day 0): 2.5±1.0 total score
- Arthritis score ([6]; Day 2): 3.7±1.6 total score
- Arthritis score ([6]; Day 5): 5.0±2.4 total score
- Arthritis score ([6]; Day 7): 6.0±2.9 total score
- Arthritis score ([6]; Day 9): 6.3±2.9 total score
- Arthritis score ([6]; Day 12): 7.2±2.7 total score
- Arthritis score ([6]; Day 14): 7.8±3.4 total score

SMILES: Cn1cnc([N+](=O)[O-])c1Sc1ncnc2nc[nH]c12 [AZA, Azathioprine]
- TNF-α expression (TNF-α [1]; 2hr): 405.0 pg/mL
- TNF-α expression (TNF-α [1]; 24hr): 3539.9 pg/mL

SMILES: [H]/N=C(\N/C(=N/[H])Nc1ccc(Cl)cc1)NC(C)C [프로구아닐]
- Bone destruction [2]: 2.7±0.8
- Cartilage damage [2]: 2.3±0.8
- Histopathological examination, total [2]: 7.8±1.9
- Synovium proliferation [2]: 2.8±0.4
- TNF-α expression (TNF-α [7]): 988.1
- TNF-α expression inhibition (TNF-α [7]; drug treatment 2 h or 24 h, pyrimethamine 0.2 μM, proguanil 5 μM): TNF-α의 발현량을 억제하지 못했고
- Paw edema, HL, mean [3]: 0.15 mL
- Paw edema, HR, mean [3]: 0.16 mL
- Paw edema, HL, individual animal ([3]; listed as PG): 0.13 mL and 0.14 mL and 0.16 mL and 0.15 mL and 0.17 mL and 0.12 mL
- Paw edema, HR, individual animal ([3]; listed as PG): 0.16 mL and 0.19 mL and 0.14 mL and 0.13 mL
- Plasma TNF-α (TNF-α [5]): 904.4 pg/mL
- Plasma TNF-α (in words) (TNF-α [5]): 혈장 TNF-α가 감소하지 않은
- Arthritis score ([6]; Day 0): 2.5±1.0 total score
- Arthritis score ([6]; Day 2): 4.5±1.0 total score
- Arthritis score ([6]; Day 5): 6.7±1.2 total score
- Arthritis score ([6]; Day 7): 8.3±1.5 total score
- Arthritis score ([6]; Day 9): 9.5±2.2 total score
- Arthritis score ([6]; Day 12): 10.2±1.6 total score
- Arthritis score ([6]; Day 14): 11.2±1.2 total score
- Arthritis score (in words) [6]: 관절염 지수가 개선되지 않았다
